The target of this experiment is MCH receptor (Homo sapiens, UniProt Q99705). In words: High throughput functional screening FLIPR/FDSS6000: inhibition of MCH-evoked intracellular Ca2+ changes. The format is cell-based. The conditions noted are these: class by percent of control at 10^-7 M or IC50. The method in brief:
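Constitutively active non-endogenous MCH-R cells; Fluo4-AM 4 μM, 2.5 mM probenecid, 1 hr, 37° C; cpd 3 min, 37° C; MCH 50 nM (antagonist mode); kinetic Ca2+ read Ex488/Em530, 290 s.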

From US20070010671A1, “Novel quinazoline derivatives and methods of treatment related to the use thereof” (priority 2003, published 2007) come the findings set out here.

For `CN(C)c1nc(N[C@H]2CC[C@@H](CNC(=O)Nc3ccc4ccccc4c3)CC2)nc2ccccc12` [compound 511], the class was 3 (Class 3: The value of percent of control at 10^−7 M was more than 60% or the value of IC50 was more than 200 nM.).
`CN(C)c1nc(N[C@H]2CC[C@@H](CNC(=O)Nc3ccccc3[N+](=O)[O-])CC2)nc2ccccc12` [compound 512, N-[(cis-4-{[4-(dimethylamino)quinazolin-2-yl]amino}cyclohexyl)methyl]-N′-(2-nitrophenyl)urea]: the class was 2 (Class 2: The value of percent of control at 10^−7 M was from 40% to 60% or the value of IC50 was from 50 nM to 200 nM.).
To `CCCc1ccccc1NC(=O)NC[C@H]1CC[C@@H](Nc2nc(N(C)C)c3ccccc3n2)CC1` [compound 513, N-[(cis-4-{[4-(dimethylamino)quinazolin-2-yl]amino}cyclohexyl)methyl]-N′-(2-propylphenyl)urea] belongs 1 (Class 1: The value of percent of control at 10^−7 M was less than 40% or the value of IC50 was less than 50 nM.); to `CN(C)c1nc(N[C@H]2CC[C@@H](CNC(=O)Nc3ccccc3Oc3ccccc3)CC2)nc2ccccc12` [compound 514, N-[(cis-4-{[4-(dimethylamino)quinazolin-2-yl]amino}cyclohexyl)methyl]-N′-(2-phenoxyphenyl)urea], 2 (Class 2: The value of percent of control at 10^−7 M was from 40% to 60% or the value of IC50 was from 50 nM to 200 nM.); to `Cc1cccc(C(C)(C)C)c1NC(=O)NC[C@H]1CC[C@@H](Nc2nc(N(C)C)c3ccccc3n2)CC1` [compound 515, N-(2-tert-butyl-6-methylphenyl)-N′-[(cis-4-{[4-(dimethylamino)quinazolin-2-yl]amino}cyclohexyl)methyl]urea], 1 (Class 1: The value of percent of control at 10^−7 M was less than 40% or the value of IC50 was less than 50 nM.).
With `CN(C)c1nc(N[C@H]2CC[C@@H](CNC(=O)Nc3ccccc3C(C)(C)C)CC2)nc2ccccc12` [compound 516, N-(2-tert-butylphenyl)-N′-[(cis-4-{[4-(dimethylamino)quinazolin-2-yl]amino}cyclohexyl)methyl]urea] the figure was 1 (Class 1: The value of percent of control at 10^−7 M was less than 40% or the value of IC50 was less than 50 nM.).
To `CSc1cccc(NC(=O)NC[C@H]2CC[C@@H](Nc3nc(N(C)C)c4ccccc4n3)CC2)c1` [compound 517, N-[(cis-4-{[4-(dimethylamino)quinazolin-2-yl]amino}cyclohexyl)methyl]-N′-[3-(methylthio)phenyl]urea] belongs 2 (Class 2: The value of percent of control at 10^−7 M was from 40% to 60% or the value of IC50 was from 50 nM to 200 nM.); to `CN(C)c1nc(N[C@H]2CC[C@@H](CNC(=O)Nc3cccc(SC(F)(F)F)c3)CC2)nc2ccccc12` [compound 518], 3 (Class 3: The value of percent of control at 10^−7 M was more than 60% or the value of IC50 was more than 200 nM.).
As for `CN(C)c1nc(N[C@H]2CC[C@@H](CNC(=O)Nc3ccc4c(c3)OCO4)CC2)nc2ccccc12` [compound 519], the class is reported as 3 (Class 3: The value of percent of control at 10^−7 M was more than 60% or the value of IC50 was more than 200 nM.).
For the molecule `COc1cc(NC(=O)NC[C@H]2CC[C@@H](Nc3nc(N(C)C)c4ccccc4n3)CC2)cc(OC)c1OC` [compound 520], the class is on record as 3 (Class 3: The value of percent of control at 10^−7 M was more than 60% or the value of IC50 was more than 200 nM.).
To `CN(C)c1nc(N[C@H]2CC[C@@H](CNC(=O)NCc3ccc(Cl)c(Cl)c3)CC2)nc2ccccc12` [compound 521] belongs 3 (Class 3: The value of percent of control at 10^−7 M was more than 60% or the value of IC50 was more than 200 nM.).
To `CN(C)c1nc(N[C@H]2CC[C@@H](CNC(=O)Nc3ccc(F)c(F)c3)CC2)nc2ccccc12` [compound 522, N-(3,4-difluorophenyl)-N′-[(cis-4-{[4-(dimethylamino)quinazolin-2-yl]amino}cyclohexyl)methyl]urea] belongs 1 (Class 1: The value of percent of control at 10^−7 M was less than 40% or the value of IC50 was less than 50 nM.); to `COc1ccc(NC(=O)NC[C@H]2CC[C@@H](Nc3nc(N(C)C)c4ccccc4n3)CC2)cc1OC` [compound 523], 3 (Class 3: The value of percent of control at 10^−7 M was more than 60% or the value of IC50 was more than 200 nM.); to `COc1cc(NC(=O)NC[C@H]2CC[C@@H](Nc3nc(N(C)C)c4ccccc4n3)CC2)cc(OC)c1` [compound 525], 2 (Class 2: The value of percent of control at 10^−7 M was from 40% to 60% or the value of IC50 was from 50 nM to 200 nM.).
To `Cc1cc(C)cc(NC(=O)NC[C@H]2CC[C@@H](Nc3nc(N(C)C)c4ccccc4n3)CC2)c1` [compound 526] belongs 3 (Class 3: The value of percent of control at 10^−7 M was more than 60% or the value of IC50 was more than 200 nM.); to `COC(=O)c1cccc(NC(=O)NC[C@H]2CC[C@@H](Nc3nc(N(C)C)c4ccccc4n3)CC2)c1` [compound 527], 3 (Class 3: The value of percent of control at 10^−7 M was more than 60% or the value of IC50 was more than 200 nM.); to `Cc1c(Cl)cccc1NC(=O)NC[C@H]1CC[C@@H](Nc2nc(N(C)C)c3ccccc3n2)CC1` [compound 528], 1 (Class 1: The value of percent of control at 10^−7 M was less than 40% or the value of IC50 was less than 50 nM.).
For `CN(C)c1nc(N[C@H]2CC[C@@H](CNC(=O)Nc3ccc(F)c(Cl)c3)CC2)nc2ccccc12` [compound 529], the class is 1 (Class 1: The value of percent of control at 10^−7 M was less than 40% or the value of IC50 was less than 50 nM.).
To `COc1ccc(NC(=O)NC[C@H]2CC[C@@H](Nc3nc(N(C)C)c4ccccc4n3)CC2)cc1Cl` [compound 530] belongs 3 (Class 3: The value of percent of control at 10^−7 M was more than 60% or the value of IC50 was more than 200 nM.); to `CCc1cccc(NC(=O)NC[C@H]2CC[C@@H](Nc3nc(N(C)C)c4ccccc4n3)CC2)c1` [compound 531, N-[(cis-4-{[4-(dimethylamino)quinazolin-2-yl]amino}cyclohexyl)methyl]-N′-(3-ethylphenyl)urea], 2 (Class 2: The value of percent of control at 10^−7 M was from 40% to 60% or the value of IC50 was from 50 nM to 200 nM.); to `CN(C)c1nc(N[C@H]2CC[C@@H](CNC(=O)Nc3cc(F)cc(C(F)(F)F)c3)CC2)nc2ccccc12` [compound 532], 2 (Class 2: The value of percent of control at 10^−7 M was from 40% to 60% or the value of IC50 was from 50 nM to 200 nM.).
Turning to `CN(C)c1nc(N[C@H]2CC[C@@H](CNC(=O)NCc3cccc(F)c3)CC2)nc2ccccc12` [compound 533, N-[(cis-4-{[4-(dimethylamino)quinazolin-2-yl]amino}cyclohexyl)methyl]-N′-(3-fluorobenzyl)urea], the class is reported as 2 (Class 2: The value of percent of control at 10^−7 M was from 40% to 60% or the value of IC50 was from 50 nM to 200 nM.).
In the case of `CN(C)c1nc(N[C@H]2CC[C@@H](CNC(=O)Nc3cccc(Oc4ccccc4)c3)CC2)nc2ccccc12` [compound 534], the class was 3 (Class 3: The value of percent of control at 10^−7 M was more than 60% or the value of IC50 was more than 200 nM.).
To `CCCCOC(=O)c1ccc(NC(=O)NC[C@H]2CC[C@@H](Nc3nc(N(C)C)c4ccccc4n3)CC2)cc1` [compound 535] belongs 3 (Class 3: The value of percent of control at 10^−7 M was more than 60% or the value of IC50 was more than 200 nM.); to `CN(C)c1nc(N[C@H]2CC[C@@H](CNC(=O)Nc3ccc(C(F)(F)F)cc3)CC2)nc2ccccc12` [compound 536], 3 (Class 3: The value of percent of control at 10^−7 M was more than 60% or the value of IC50 was more than 200 nM.).
To `CN(C)c1nc(N[C@H]2CC[C@@H](CNC(=O)Nc3ccc(SC(F)(F)F)cc3)CC2)nc2ccccc12` [compound 537] belongs 3 (Class 3: The value of percent of control at 10^−7 M was more than 60% or the value of IC50 was more than 200 nM.); to `Cc1cc(NC(=O)NC[C@H]2CC[C@@H](Nc3nc(N(C)C)c4ccccc4n3)CC2)c([N+](=O)[O-])cc1C` [compound 538], 2 (Class 2: The value of percent of control at 10^−7 M was from 40% to 60% or the value of IC50 was from 50 nM to 200 nM.).
With `CN(C)c1nc(N[C@H]2CC[C@@H](CNC(=O)Nc3ccc(OCc4ccccc4)cc3)CC2)nc2ccccc12` [compound 539] the figure was 3 (Class 3: The value of percent of control at 10^−7 M was more than 60% or the value of IC50 was more than 200 nM.).
As to `CN(C)c1nc(N[C@H]2CC[C@@H](CNC(=O)Nc3ccc(Cc4ccccc4)cc3)CC2)nc2ccccc12` [compound 540], the class is given as 3 (Class 3: The value of percent of control at 10^−7 M was more than 60% or the value of IC50 was more than 200 nM.).
As to `CN(C)c1nc(N[C@H]2CC[C@@H](CNC(=O)Nc3ccc(Br)cc3C(F)(F)F)CC2)nc2ccccc12` [compound 541, N-[4-bromo-2-(trifluoromethyl)phenyl]-N′-[(cis-4-{[4-(dimethylamino)quinazolin-2-yl]amino}cyclohexyl)methyl]urea], the class is listed as 2 (Class 2: The value of percent of control at 10^−7 M was from 40% to 60% or the value of IC50 was from 50 nM to 200 nM.).
To `CN(C)c1nc(N[C@H]2CC[C@@H](CNC(=O)Nc3c(F)cc(Br)cc3F)CC2)nc2ccccc12` [compound 542, N-(4-bromo-2,6-difluorophenyl)-N′-[(cis-4-{[4-(dimethylamino)quinazolin-2-yl]amino}cyclohexyl)methyl]urea] belongs 1 (Class 1: The value of percent of control at 10^−7 M was less than 40% or the value of IC50 was less than 50 nM.); to `CN(C)c1nc(N[C@H]2CC[C@@H](CNC(=O)Nc3ccc(Br)cc3Cl)CC2)nc2ccccc12` [compound 543], 3 (Class 3: The value of percent of control at 10^−7 M was more than 60% or the value of IC50 was more than 200 nM.).
